The values below come from patent publication US4863748A, “Dietary products and uses comprising methylsulfonylmethane” (priority 1986, dated 1989).

The structures appear in SMILES notation. Structures can show the parent of a compound that is named as a salt.

The test system of series [1] is scarification of the right cheek pouch. The experiment in a line: Wound healing of the cheek pouch in hamsters (Example 17). The series is classed as in vivo. The conditions noted are these: 0.1 gm/kg methylsulfonylmethane alone or 100 mg ascorbic acid alone in feed; controls day 4 and 5. As to the method: Four sets of 5 hamsters were subject to scarification of the right cheek pouch, using standard methodology. One week prior to pouch injury, one set was started on a daily regimen of 0.1 gm/kg of methylsulfonylmethane in the diet of standard hamster feed, a second group was given 0.1 gm/kg of methylsulfonylmethane plus 100 mg of ascorbic acid in the same feed, a third group was given only 100 mg of ascorbic acid in the same feed, and the last group, fed only the feed, was held as control. Daily post-scarification examination was made to determine the rate of injury repair.

The subject of series [2] is pain in the mid-back region. In words: Acute pain, comparison with codeine, urinary calculi, subject three (Example 32). The series is classed as in vivo, human. The conditions noted are these: for pain relief: subject three. The method, then: Methylsulfonylmethane was compared with codeine for the control of pain in subject three, a person who awakened in the early morning with excruciating pain in the mid-back region, so intense it was difficult to pin-point a specific region. […] Analgesic requirements were 1/2 grain codeine with aspirin every two hours. […] The intense pain returned. The subject was given 1.5 g of methylsulfonylmethane dissolved in 1/2 glass of warm water. At 0.5 hours after taking the methylsulfonylmethane, the pain had essentially disappeared. Methylsulfonylmethane (1.5 g/day) was continued until the afternoon of the third day, when X-ray confirmed that the calculi yet obstructed the ureter. Subject was switched again to codeine with aspirin (1/2 grain×2 hours). […] Methylsulfonylmethane was again administered (1.5 g×4 hours). On day 5 the calculi passed. Recovery was uneventful, requiring neither codeine, methylsulfonylmethane,nor a urinary tract antimicrobial.

The next series deals with arthritis. The experiment in a line: Canine arthritis and other sources of pain (Example 30). The series is classed as in vivo, dog. The conditions noted are these: prior treatment. From the text: In each case the methylsulfonylmethane was admixed with the animal's food just prior to feeding.
This animal, although owned by a veterinarian, had not responded to a variety of therapeutic regimens over the previous 12 months. Methylsulfonylmethane was given to this dog in its food at a level of 1.5 grams b.i.d. X 1 month.
It was mobile but walked with obvious difficulty and discomfort. The animals was refractory to both cortisone and phenylbutazone.
The animal had not responded to either cortisone nor phenylbutazone and its condition was deteriorating rapidly. Methylsulfonylmethane was included in its diet at 1 gm/day b.i.d. After one week, the dog appeared to be pain-free.

Another series deals with platelet count. In words: Low platelet count in lupus erythematosus (Example 22). The series is classed as in vivo, human. The conditions noted are these: adult female, after prednisone therapy, before methylsulfonylmethane. From the text: Methylsulfonylmethane administered orally raised the platelet count of an adult with lupus erythematosus from 84,000 (after prednisone therapy) to 200,000 over a 2-year period (1.5 gm/day in 3 doses).

The subject of another series is Trichomonas vaginalis. In words: Treatment of Trichomonas vaginalis infection in subjects (Example 28(a)). The series is classed as in vivo, human. The conditions noted are these: human, in vivo. From the text: Both had prior courses of therapy for this disorder without adequate response. […]
One subject was later reinfected by their sexual partner but the reinfection was cleared employing a daily douche of 5% aqueous methylsulfonylmethane for one week.

With `O=C1O[C@H]([C@@H](O)CO)C(O)=C1O` [vitamin C, ascorbic acid, reference compound], the “day on which the 36-hour combination healing result was matched” value in series [1] is listed as “three”. As to `CC(=O)Oc1ccccc1C(=O)O` [Aspirin], the pain relief result in series [2] was “ineffective”. For `COc1ccc2c3c1O[C@H]1[C@@H](O)C=C[C@H]4[C@@H](C2)N(C)CC[C@@]341` [codeine], the mental confusion entry in series [2] (day two, 1/2 grain codeine with aspirin every two hours) is “mental confusion”. Besides, the pain relief entry in series [2] is “acceptable relief”.

As to `CCCCC1C(=O)N(c2ccccc2)N(c2ccccc2)C1=O` [phenylbutazone, reference compound], in the series with arthritis, the “response, Dog A” value was “not responsive”; the “response, Dog C” value is “refractory”; the “response, Dog D” value is given as “not responded”. Regarding `C[C@]12C=CC(=O)C=C1CC[C@@H]1[C@@H]2C(=O)C[C@@]2(C)[C@H]1CC[C@]2(O)C(=O)CO` [prednisone, reference compound], the platelet count with platelet count is listed as 84,000. On to `C[C@]12CCC(=O)C=C1CC[C@@H]1[C@@H]2C(=O)C[C@@]2(C)[C@H]1CC[C@]2(O)C(=O)CO` [cortisone, reference compound], for which, in the series with arthritis, the “response, Dog A” value is “not responsive”; the “response, Dog C” value was “refractory”; the “response, Dog D” value was “not responded”.

As for `Cc1ncc([N+](=O)[O-])n1CCO` [metronidazole HCL, reference compound], the “stomach upset and nausea” value in the series with Trichomonas vaginalis is reported as “side effect experienced by one subject”.
